Entries after “also recorded” stand apart in the source; their conditions may differ.
Experiments:
[1] = tested on: ALDEFLUOR-positive population of MDA-MB-453; assay: ALDEFLUOR assay on MDA-MB-453 cells in vitro; format: cell-based, human; details: three days, repertaxin 100 nM, antibodies 10 μg/ml
Experimental: (§1) ALDEFLUOR assay. […] In order to eliminate cells of mouse origin from the xenotransplanted tumors, cell population was stained with an anti-H2Kd antibody (BD biosciences, 1/200, 20 min on ice) followed by staining with a secondary antibody labeled with phycoerythrin (PE) (Jackson labs, 1/250, 20 min on ice).

ALDH1 = assay: Immunohistochemistry of ALDH1 in xenotransplants; format: in vivo, NOD/SCID mice; details: compared to untreated tumors
Experimental: Immunostaining. For immunofluorescent staining, sorted CXCR1-positive cells were fixed with 95% methanol at −20° C. for 10 minutes. Cells were rehydrated in PBS and incubated with respective antibodies at room temperature for 1 hour. Primary antibodies used were P-FAK (1:50, Cell Signaling Technology), P-AKT (1:300, Cell Signaling Technology), and FOXO3a (1:250, Cell Signaling Technology). Slides were then washed and incubated 30 minutes with PE conjugated secondary antibodies (Jackson labs). The nuclei were counterstained with DAPI/antifade (Invitrogen) and coverslipped. […] Immunohistochemistry for the detection of ALDH1 (1:100, BD biosciences), P-FAK, P-AKT, FOXO3a expression was done on paraffin section (Ginestier et al. Am. J Pathol. 161:1223-1233, herein incorporated by reference in its entirety). Staining was done utilizing the Histostainplus kit (Zymed laboratories). Diaminobenzidine (DAB) or 3-amino-9-ethylcarbazole (AEC) was used as chromogen and sections were counterstained with hematoxylin.

SUM159 cells = assay: Metastasis formation after intracardiac injection of SUM159 cells (bioluminescence); format: in vivo, NOD/SCID mice; details: 250,000 cells intracardiac, repertaxin 15 mg/kg s.c. twice a day 28 days vs saline
Experimental: A SUM159 cell line was infected with a lentivirus expressing luciferase and inoculated 250,000 luciferase infected cells in the heart of NOD/SCID mice. The mice were organized into two groups.
Intracardiac inoculation. Six weeks-old NOD/SCID mice were anesthetized with 2% isofluorane/air mixture and injected in the heart left ventricle with 250,000 cells in 100 μL of sterile Dulbecco's PBS lacking Ca2+ and Mg2+. […] Twelve hours after intracardiac injections, mice were begun on twice per day repertaxin injections or saline for the controls.
Bioluminescence detection. Baseline bioluminescence was assessed before inoculation and each week thereafter inoculations. Bioluminescence detection procedures was performed as previously described (Charafe-Jauffret et al. Cancer Res. 69:1302-1313, herein incorporated by reference in its entirety). Normalized photon flux represents the ratio of the photon flux detected each week after inoculations and the photon flux detected before inoculation.

HCC1954 PTEN-siRNA cells = assay: Repertaxin on HCC1954 PTEN-siRNA cells (western, MTT); format: cell-based, human
Experimental: Cell viability. […] Nuclei were counterstained with DAPI/antifade (Invitrogen).
(§2) Western blotting. Cells were lysed in a laemmli buffer and loaded onto SDS-polyacrylamide gels. Blots were incubated with the respective primary antibodies diluted in TBST (containing 0.1% Tween20 and 2% BSA) either overnight at 4o, or 2 hours at room temperature. Blots were washed and incubated with appropriate secondary antibodies (GE Healthcare, UK) and detected using SuperSignal West Pico Chemiluminescent Substrate (Pierce).
Virus infection. […] All lentiviral constructs were prepared by the University of Michigan Vector. An adenoviral construct for the overexpression of FAK (Ad-FAK-GFP) was also utilized (Luo et al. Cancer Res. 69:466-474, herein incorporated by reference in its entirety). Cells infection with different vectors was performed as previously described (Charafe-Jauffret et al. Cancer Res. 69:1302-1313, herein incorporated by reference in its entirety). Efficiency of infection was verified by measuring the percentage of DsRed or GFP expressing cells.

[2] = tested on: ALDEFLUOR-positive population of SUM159 cell line; assay: ALDEFLUOR assay on SUM159 cells in vitro (cancer stem cell population); format: cell-based, human
Experimental: ALDEFLUOR Assay and Separation of the ALDH-positive Population by FACS. ALDH activity was assessed in 33 BCLs representing the main molecular subtypes of human breast cancer. The ALDEFLUOR kit (StemCell technologies, Durham, N.C., USA) was used to isolate the population with high ALDH enzymatic activity (17). Cells obtained from subconfluent cell lines after trypsinization or from freshly dissociated xenografts were suspended in ALDEFLUOR assay buffer containing ALDH substrate (BAAA, 1 μmol/l per 1×10^6 cells) and incubated for 40 minutes at 37° C. In each experiment a sample of cells was stained under identical conditions with 50 mmol/L of diethylaminobenzaldehyde (DEAB), a specific ALDH inhibitor, as negative control. Flow cytometry sorting was conducted using a FACStarPLUS (Becton Dickinson). ALDEFLUOR fluorescence was excited at 488 nm and detected using standard fluorescein isothiocyanate (FITC) 530/30 band pass filter. For xenotransplanted tumors, incubation with an anti-H2Kd antibody (BD biosciences, 1/200, 20 min on ice) followed by a secondary antibody labeled with phycoerythrin (Jackson labs, 1/250, 20 min on ice) was used to eliminate cells of mouse origin. The sorting gates were established using PI stained cells for viability, ALDEFLUOR-stained cells treated with DEAB, and those stained with secondary antibody alone. Prior to RNA profiling or NOD/SCID mice injection, the purity of sorted populations was checked using double sorting of 10,000 ALDEFLUOR-positive and negative cells in BrCa-MZ-01 and SUM159 cell lines.
as §1

[3] = tested on: SUM159 cell line and human breast cancer xenografts MC1, UM2, UM3; assay: Tumor growth of breast cancer xenografts in the mammary fat pad; format: in vivo, NOD/SCID mice; details: repertaxin 15 mg/Kg s.c. twice a day 28 days, docetaxel 10 mg/Kg i.p. once a week, start at tumor size about 4 mm
Experimental: For each sample, 50,000 cells were injected into the mammary fat pad of NOD-SCID mice which were monitored for tumor size. Injections were started when the tumor size was about 4 mm.
Animal model. […] Cells from these tumors were transplanted orthotopically in the humanized cleared fat-pad of NOD/SCID mice, without cultivation in vitro. […] 50,000 cells from each xenotransplants were injected in the humanized fat pad of NOD/SCID mice and monitored the tumor growth. […] The animals were euthanized when the tumors were approximately 1.5 cm in the largest diameter, to avoid tumor necrosis and in compliance with regulations for use of vertebrate animal in research. A portion of each fat pad injected was fixed in formalin and embedded in paraffin for histological analysis. The rest of the tumor cells were re-implantated into secondary NOD/SCID mice. Serial dilutions of cells were utilized for the re-implantation with injection of 10,000, 1,000, and 100 cells for each treated tumor.

[4] = tested on: FAK Tyr397 and AKT Ser473 phosphorylation; assay: Western blotting of FAK/AKT activation in MDA-MB-453; format: cell-based, human
Experimental: as §2

## CC(C)Cc1ccc([C@@H](C)C(=O)NS(C)(=O)=O)cc1 [Repertaxin]
[1]
  ALDEFLUOR-positive population: np any effect
ALDH1
  ALDH1-positive cells / ALDH1 expression in treated tumors: decrease in ALDH1-positive cells; also recorded: decrease of ALDH1 expression
SUM159 cells
  metastasis formation (normalized photon flux): statistically significant increase of metastasis formation in the group of mice treated with saline solution; also recorded: significantly reduced metastasis formation; also recorded: reduces the metastatic potential
SUM159 cells; listed as repertaxin
  metastasis formation (normalized photon flux): statistically significant decrease in metastasis formation
HCC1954 PTEN-siRNA cells; 100 nM, two days
  FAK and AKT activity in HCC1954 PTEN-siRNA cells (western blot): PTEN deletion blocked the effect of repertaxin treatment
HCC1954 PTEN-siRNA cells; 3 days of treatment
  cell viability (MTT) of HCC1954 PTEN-siRNA cells: developed resistance to repertaxin
[2]; SUM159, repertaxin, repertaxin plus anti-FAS-ligand, FAS agonist
  percent of ALDEFLUOR-positive cells: massive decrease
[2]; SUM159, three days, repertaxin 100 nM, antibodies 10 μg/ml
  proportion of ALDEFLUOR-positive cells: five-fold reduction; also recorded: significant reduction
[2]; SUM159 adherent, 4 days of treatment
  decrease of the ALDEFLUOR-positive population: 80%
[3]
  tumor size / tumor growth compared to the control: moderate impact on tumor growth
[3]; listed as Reperataxin
  tumor size / tumor growth compared to the control: no significant difference
[3]; listed as repertaxin
  tumor size / tumor growth compared to the control: no difference
[4]
  FAK Tyr397 and AKT Ser473 phosphorylation (western blot): No modification

From patent publication US9606124B2, “Methods of detecting and treating stem-cell containing solid tumors” (The Regents of The University of Michigan, priority 2008, dated 2017)
